From patent US3950525A, “Relaxation of smooth muscle in a mammal” (Pfizer Inc., priority 1975, dated 1976)
Structures can show the parent of a compound that is named as a salt. Where two headings read alike, the source gives them in different places.

Key:
[1] = tested on: histamine aerosol induced bronchoconstriction; assay: Bronchodilator Activity (protection of conscious guinea pigs against histamine aerosol); format: in vivo; conditions: for inhibition in vivo at 60 mg/kg: Cavia porcellus, 1 h, read-out: % Protection
Experimental: Subsequent to this administration, each animal is challenged with histamine aerosol. […] Immediately after the container is subjected to the histamine spray the animal is placed within it. At the end of one minute of exposure, the respiratory status, which is a reflection of bronchoconstriction, is evaluated. Evaluation levels are designated and scored as normal breathing (0), slight deepened breathing (1), labored breathing (2), severely labored breathing and […] (3) and unconsciousness (4). Each group of animals contains 8 to 10 individual and a control group containing the same approximate number is used. […] The dose, which is given orally, is 60 mg./kg. and the animals are challenged with histamine 60 minutes later.

[2] = tested on: collagen induced platelet aggregation; assay: In Vivo Inhibition of Platelet Aggregation (collagen induced aggregation in plasma of dosed dogs); parameters: species or system mongrel dogs; conditions: for Inhibition to Collagen, High: high collagen (1:20 dilution); for Inhibition to Collagen, Low: low collagen (1:40-50 dilution)
Experimental: The capacity of the compounds of the present invention to inhibit platelet aggregation in a modified in vivo test is measured by the following procedure: Unanesthetized fasted adult mongrel dogs of either sex are dosed orally (P.O.) or intravenously (I.V.) with the particular test compound. Blood samples are taken at hourly intervals and placed in plastic centrifuge tubes containing 0.1 volume 3% sodium citrate. Platelet-rich plasma is separated by centrifugation at 100 G for 10 minutes at 20° C. and treated with a collagen suspension in saline. The effect of two different levels of collagen concentration are examined; the first is a 1:20 dilution, i.e. 1 ml. of collagen suspension per 20 ml. of platelet-rich plasma (high dose), and the second, a 1:40-50 dilution (low dose). Changes in optical density are then followed with a Spectronic 20 colorimeter attached to a Houston Instrument TY Recorder. Platelet aggregation is indicated by a decrease in optical density. […] Measurements are carried out on the hourly samples, allowing for the determination of a duration of the initial effect.

[3] = tested on: collagen induced platelet aggregation; assay: In Vitro Inhibition of Platelet Aggregation (collagen induced, rabbit platelet-rich plasma); format: cell-based; conditions: Oryctolagus cuniculus, 10 min; for inhibition at 600 µM: 6 × 10^^-4 mol./l.; for inhibition at 60 µM: 6 × 10^^-5 mol./l.; for inhibition at 6 µM: 6 × 10^^-6 mol./l.
Experimental: The ability of the compounds of the present invention to inhibit platelet aggregation in vitro is measured according to the method of Born, et al., J. Physiol., 168, 178 (1963) and comprises the following procedure: Anesthetized male rabbits are bled from a carotid artery into plastic centrifuge tubes containing 0.1 volume 3% sodium citrate. Platelet-rich plasma is separated by centrifugation at 100 G for 10 minutes at 20° C. […] After 10 minutes of incubation with the platelet-rich plasma at room temperature, collagen, a protein known to cause platelet aggregation, is added (0.27 ml. collagen/4 ml. plasma) and changes in the optical density are followed with a Spectronic 20 colorimeter attached to a Houston Instrument TY Recorder. Platelet aggregation is indicated by a decrease in optical density. The relative potency of the compounds of the present invention are thus rated on their ability to inhibit (percent) collagen induced platelet aggregation.

[4] = 60 mg./kg. oral, histamine challenge 60 minutes later

| SMILES | inhibition at 600 µM [3] | inhibition at 60 µM [3] | inhibition at 6 µM [3] | further results |
| --- | --- | --- | --- | --- |
| CCc1c(-c2ccc3ccccc3c2)ncnc1N(CC)CC [Ar=2-naphthyl; R1=C2H5; R2=C2H5; R3=C2H5, 4-Diethylamino-5-ethyl-6-(2-naphthyl)pyrimidine hydrochloride] |  |  |  | inhibition in vivo at 60 mg/kg ([1]; po): 47% |
| CCN(CCO)c1cc(-c2ccccc2)ncn1.Cl [Ar=C6H5; R1=HO(CH2)2; R2=C2H5; R3=H, 4-[Ethyl(2-hydroxyethyl)amino]-6-phenylpyrimidine hydrochloride] | 99% | 97% | 35% | Duration ([2]; 10 mg./kg. I.V.): 3 h; Inhibition to Collagen, High ([2]; 10 mg./kg. I.V.): Complete (complete (95-100%)); Inhibition to Collagen, Low ([2]; 10 mg./kg. I.V.): Complete (complete (95-100%)); Duration ([2]; 25 mg./kg. P.O.): 2 h; Inhibition to Collagen, High ([2]; 25 mg./kg. P.O.): Complete (complete (95-100%)); Inhibition to Collagen, Low ([2]; 25 mg./kg. P.O.): Complete (complete (95-100%)) |
| Oc1cc(-c2ccccc2)ncn1 [R3=H, 4-Hydroxy-6-phenylpyrimidine] |  |  |  | inhibition in vivo at 60 mg/kg ([1]; po): 12% |
| CCN(CC)c1cc(-c2ccc(OC)cc2)ncn1 [Ar=4-CH3OC6H4; R1=C2H5; R2=C2H5; R3=H, 4-diethylamino-6-(p-methoxyphenyl)pyrimidine] |  | 86% | 42% | Inhibition to Collagen, High ([2]; 10 mg./kg. I.V.): None (none (0-15%)); Inhibition to Collagen, Low ([2]; 10 mg./kg. I.V.): None (none (0-15%)); Inhibition to Collagen, High ([2]; 40 mg./kg. P.O.): Partial (partial (15-95%)); Duration ([2]; 40 mg./kg. P.O., line with high collagen result): 1 h; Duration ([2]; 40 mg./kg. P.O., line with low collagen result): 4 h; Inhibition to Collagen, Low ([2]; 40 mg./kg. P.O.): Complete (complete (95-100%)) |
| CCN(CC)c1ncnc(-c2cccc(NC(C)=O)c2)c1C |  |  |  | inhibition in vivo at 60 mg/kg [1, 4]: 43% |
| CCN(CC)c1cc(-c2ccco2)ncn1 [Ar=2-furyl; R1=C2H5; R2=C2H5; R3=H, 4-Diethylamino-6-(2-furyl)pyrimidine hydrochloride] |  |  |  | inhibition in vivo at 60 mg/kg [1, 4]: 15% |
| CC(C)c1c(O)ncnc1-c1ccccc1 [R3=i-C3H7] |  |  |  | inhibition in vivo at 60 mg/kg ([1]; po): 16% |
| CCCc1c(O)ncnc1-c1ccccc1 [R3=n-C3H7] |  |  |  | inhibition in vivo at 60 mg/kg [1, 4]: 25% |
| CCc1c(-c2cccc(NC(C)=O)c2)ncnc1N(C)C |  |  |  | inhibition in vivo at 60 mg/kg [1, 4]: 10% |
| Cl.FC(F)(F)CNc1cc(-c2ccccc2)ncn1 [Ar=C6H5; R1=CF3CH2; R2=H; R3=H, 4-(2,2,2-Trifluoroethylamino)-6-phenylpyrimidine hydrochloride] |  | 83% | 32% | Duration ([2]; 10 mg./kg. I.V.): 3 h; Inhibition to Collagen, High ([2]; 10 mg./kg. I.V.): Complete (complete (95-100%)); Duration ([2]; 25 mg./kg. P.O.): 3 h; Inhibition to Collagen, High ([2]; 25 mg./kg. P.O.): Partial (partial (15-95%)); Duration ([2]; 35 mg./kg. P.O.): 4 h; Inhibition to Collagen, High ([2]; 35 mg./kg. P.O.): Complete (complete (95-100%)); Inhibition to Collagen, Low ([2]; 35 mg./kg. P.O.): Complete (complete (95-100%)) |
| CCc1c(-c2cccc(NC(C)=O)c2)ncnc1N(CC)CC |  |  |  | inhibition in vivo at 60 mg/kg [1, 4]: 35% |
| Cc1c(O)ncnc1-c1ccccc1 [R3=CH3] |  |  |  | inhibition in vivo at 60 mg/kg [1, 4]: 22% |
| CCc1c(O)ncnc1-c1ccccc1 [R3=C2H5, 4-hydroxy-5-ethyl-6-phenylpyrimidine] |  |  |  | inhibition in vivo at 60 mg/kg [1, 4]: 62%; activity as a bronchodilator (in words) ([1]; guinea pig, in vivo): unexpected, outstanding activity as a bronchodilator |
| CCN(CC)c1cc(-c2cccc(NC(=O)C(C)C)c2)ncn1 [4-diethylamino-6-(m-isobutrylaminophenyl)pyrimidine] |  |  |  | inhibition in vivo at 60 mg/kg ([1]; po): 22% |
| CCCCN(CCCC)c1cc(-c2ccccc2)ncn1 [Ar=C6H5; R1=n-C4H9; R2=n-C4H9; R3=H] |  | 56% | 35% |  |
| CC(=O)Nc1cccc(-c2cc(N3CCCC3)ncn2)c1 [Ar=3-CH3CONHC6H4; R1,R2=--(CH2)4--; R3=H] | 94% | 30% |  |  |
| CCN(CC(F)(F)F)c1cc(-c2cccs2)ncn1 [Ar=2-thienyl; R1=CF3CH2; R2=C2H5; R3=H] | 75% | 65% | 58% |  |
| CCCc1c(-c2ccccc2)ncnc1N(CC)CC [Ar=C6H5; R1=C2H5; R2=C2H5; R3=n-C3H7] |  |  | 55% |  |
| CCN(CC)c1cc(-c2cccc(NC(=S)NC)c2)ncn1 | 4.9% |  |  |  |

| SMILES | inhibition at 600 µM [3] | inhibition at 60 µM [3] | inhibition at 6 µM [3] | further results |
| --- | --- | --- | --- | --- |
| CC(C)CN(CC(C)C)c1cc(-c2ccccc2)ncn1 [Ar=C6H5; R1=i-C4H9; R2=i-C4H9; R3=H] | 35% | 24% | 10% |  |
| CCCN(CCC)c1ncnc(-c2ccccc2)c1C [Ar=C6H5; R1=n-C3H7; R2=n-C3H7; R3=CH3] |  |  | 11% |  |
| CCCN(C)c1cc(-c2ccccc2)ncn1 [Ar=C6H5; R1=n-C3H7; R2=CH3; R3=H] |  | 47% | 39% |  |
| CCN(CCO)c1cc(-c2ccc(OC)cc2)ncn1 | 90% | 71% | 55% |  |
| CN(C)c1cc(-c2ccc(Cl)cc2)ncn1 [Ar=4-ClC6H4; R1=CH3; R2=CH3; R3=H, 4-Dimethylamino-6-(p-chlorophenyl)pyrimidine hydrochloride] | 99% | 58% | 7% |  |
| CCN(CC)c1cc(-c2cccc(NC(=O)NC)c2)ncn1 | 23% |  |  |  |
| CCCN(CCC)c1ncnc(-c2cccc(NC(C)=O)c2)c1C |  |  |  | inhibition in vivo at 60 mg/kg [1, 4]: 17% |
| COc1ccc(-c2cc(N3CCCC3)ncn2)cc1 [Ar=4-CH3OC6H4; R1,R2=--(CH2)4--; R3=H] | 92% | 92% | 39% |  |
| c1ccc(-c2cc(N3CCOCC3)ncn2)cc1 [Ar=C6H5; R1,R2=--(CH2)2O(CH2)2--; R3=H, 4-(4-Morpholinyl)-6-phenylpyrimidine hydrochloride] | 94% | 75% | 37% |  |
| C=CCN(CC=C)c1cc(-c2ccc(OC)cc2)ncn1 | 90% |  | 55% |  |
| CN1CCN(c2cc(-c3ccc(Cl)cc3)ncn2)CC1 [4-(4-Methyl-1-piperazinyl)-6-(p-chlorophenyl)pyrimidine hydrochloride] | 99% | 65% | 2% |  |
| CN(CCO)c1cc(-c2ccccc2)ncn1 [Ar=C6H5; R1=HO(CH2)2; R2=CH3; R3=H, 4-[Methyl(2-hydroxyethyl)amino]-6-phenylpyrimidine hydrochloride] | 99% | 99% | 28% |  |
| CCCN(CCC)c1cc(-c2ccc(OC)cc2)ncn1 | 91% | 77% | 64% |  |
| CCc1c(-c2ccc(OC)cc2)ncnc1N(CC)CC [Ar=4-CH3OC6H4; R1=C2H5; R2=C2H5; R3=C2H5] |  |  | 42% |  |
| CCN(CC)c1cc(-c2cccc(NC(=O)OC)c2)ncn1 | 95% | 11% |  |  |
| Nc1cccc(-c2cc(N3CCCC3)ncn2)c1 [Ar=3-NH2C6H4; R1,R2=--(CH2)4--; R3=H] | 11% |  |  |  |
| c1ccc(-c2cc(N3CCCCCC3)ncn2)cc1 [Ar=C6H5; R1,R2=--(CH2)6--; R3=H, 4-(1-Hexahydroazepinyl)-6-phenylpyrimidine hydrochloride] | 99% | 83% | 29% |  |
| CCCN(CCC)c1ncnc(-c2ccccc2)c1CC [Ar=C6H5; R1=n-C3H7; R2=n-C3H7; R3=C2H5] |  |  | 5% |  |
| c1ccc(-c2cc(N3CCCC3)ncn2)cc1 [Ar=C6H5; R1,R2=--(CH2)4--; R3=H, 4-(1-Pyrrolidinyl)-6-phenylpyrimidine hydrochloride] | 98% | 70% | 6% |  |
